Tests used:
Format in all cases: in vivo
Echinochloa crusgalli = test: Post-emergence test experiment, Echinochloa crusgalli; conditions: for Activity level (growth inhibition rate), Echinochloa crusgalli: 1000 g a.i./ha, 3 weeks in greenhouse, fresh weight inhibition
In short: (§1)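 Read-out is fresh weight inhibition rate, taken 3 weeks after spraying. Treatment was applied to plants at the 2-3 leaf stage, grown from seed under 0.5-2 cm soil in greenhouse pots. Spray solution contained acetone, tween-80 and methyl oleate emulsible concentrate at 1.5 liters per hectare.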

Digitaria sanguinalis = test: Post-emergence test experiment, Digitaria sanguinalis; conditions: for Activity level (growth inhibition rate), Digitaria sanguinalis: 1000 g a.i./ha, 3 weeks in greenhouse, fresh weight inhibition
In short: as §1

[1] = tested on: Semen Euphorbiae Lathyridis; test: Post-emergence test experiment, Semen Euphorbiae Lathyridis; conditions: 200 g a.i./ha, 3 weeks, weed resistant to cyhalofop-butyl
In short: as §1

rice = test: Post-emergence test experiment, rice (crop selectivity); conditions: 200 g a.i./ha, 3 weeks
In short: as §1

[2] = tested on: Monocotyledonous and dicotyledonous weed seeds and main crop seeds; test: Post-emergence test experiment, other weeds and crops (Table 4, 1000 g a.i./ha); conditions: 3 weeks in greenhouse, fresh weight inhibition
In short: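 Weed and crop seeds (wheat, corn, rice, soybean, cotton, oilseed, millet, sorghum) sown in soil pots in a greenhouse and sprayed at 2-3 leaf stage, 2 weeks after sowing. Compound in acetone/tween-80 with methyl oleate concentrate (1.5 L/ha) as synergist. Effect recorded as fresh-weight growth inhibition rate.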

rice (japonica rice) = test: Transplanted rice safety evaluation; conditions: transplanted 3-leaf japonica rice, 1000 g a.i./ha, 21 days after treatment
Procedure: In addition, the rice field soil that loaded into the 1/1,000,000 ha pot was leveled to keep water storage at 3-4 cm depth. The 3-leaf stage rice (japonica rice) was transplanted at 3 cm of transplanting depth the next day. The compound of the present invention was treated by the same way after 5 days of transplantation.
(§2) The fertility condition of Monochoria vaginalis 14 days and rice 21 days after the treatment of the compound of the invention with the naked eye.

Monochoria vaginalis = test: Weed control effect evaluation in rice field; conditions: paddy pot, 0.5 leaf stage, 1000 g a.i./ha, 14 days; weed resistant to pyrazosulfuron-ethyl and penoxsulam
Procedure: Rice field soil was loaded into a 1/1,000,000 ha pot. The seeds of Monochoria vaginalis were sowed and gently covered with soil, then left to stand still in greenhouse in the state of 0.5-1 cm of water storage. It was kept at 3-4 cm of water storage thereafter. The weeds were treated by dripping the WP or SC water diluents prepared according to the common preparation method of the compounds of the present invention with pipette homogeneously to achieve specified effective amount when Monochoria vaginalis reached 0.5 leaf stage.
as §2

[3] = 200 g a.i./ha, 3 weeks, weed resistant to ALS inhibitor and ACCe herbicides
[4] = 200 g a.i./ha, 3 weeks, weed resistant to cyhalofop-butyl

| SMILES | Echinochloa crusgalli, activity level (growth inhibition rate) (Echinochloa crusgalli; [3]) | Activity level (growth inhibition rate), Echinochloa crusgalli (Echinochloa crusgalli) | Digitaria sanguinalis, activity level (growth inhibition rate) (Digitaria sanguinalis; [4]) | Activity level (growth inhibition rate), Digitaria sanguinalis (Digitaria sanguinalis) | Semen Euphorbiae Lathyridis, activity level (growth inhibition rate) [1] | rice, activity level (growth inhibition rate) (rice) | Activity level (growth inhibition rate), Abutilon theophrasti Medic. [2] | Activity level (growth inhibition rate), Galium aparine [2] | Activity level (growth inhibition rate), Monochoria Vaginalis [2] | rice, safety level 0-5 (rice (japonica rice)) | Monochoria Vaginalis, activity level 0-5 (Monochoria vaginalis) | inhibition at 200 g/ha (Echinochloa crusgalli; Echinochloa crus-galli, 504 h, 200 g a.i./ha, 3 weeks, weed resistant to ALS inhibitor and ACCe herbicides, read-out: Echinochloa crusgalli, activity level (growth inhibition rate)) | inhibition at 200 g/ha (Digitaria sanguinalis; Digitaria sanguinalis, 504 h, 200 g a.i./ha, 3 weeks, weed resistant to cyhalofop-butyl, read-out: Digitaria sanguinalis, activity level (growth inhibition rate)) | inhibition at 200 g/ha ([1]; 504 h, read-out: Semen Euphorbiae Lathyridis, activity level (growth inhibition rate)) |
| --- | --- | --- | --- | --- | --- | --- | --- | --- | --- | --- | --- | --- | --- | --- |
| CC(Oc1nc(F)c(Cl)c(N)c1Cl)C(=O)OCc1ccccc1 (stereo not drawn) [Compound 2-300] | 5 (Level 5: the growth inhibition rate is greater than 85%) | 5 (Level 5: the growth inhibition rate is greater than 85%) | 5 (Level 5: the growth inhibition rate is greater than 85%) | 5 (Level 5: the growth inhibition rate is greater than 85%) | 5 (Level 5: the growth inhibition rate is greater than 85%) | 0 (Level 0: the growth inhibition rate is less than 5%) | 5 (Level 5: the growth inhibition rate is greater than 85%) | 5 (Level 5: the growth inhibition rate is greater than 85%) | 5 (Level 5: the growth inhibition rate is greater than 85%) | 0 (Level 0: the growth inhibition rate is less than 5%) | 5 (Level 5: the growth inhibition rate is greater than 85%) | – | – | – |
| COC(=O)[C@@H](C)Oc1nc(F)c(Cl)c(N)c1Cl [Compound 2-69] | – | 5 (Level 5: the growth inhibition rate is greater than 85%) | – | 5 (Level 5: the growth inhibition rate is greater than 85%) | – | 0 (Level 0: the growth inhibition rate is less than 5%) | 5 (Level 5: the growth inhibition rate is greater than 85%) | 5 (Level 5: the growth inhibition rate is greater than 85%) | 5 (Level 5: the growth inhibition rate is greater than 85%) | 0 (Level 0: the growth inhibition rate is less than 5%) | 5 (Level 5: the growth inhibition rate is greater than 85%) | > 85% | > 85% | > 85% |
| C[C@@H](Oc1nc(F)c(Cl)c(N)c1Cl)C(=O)OCc1ccco1 [Compound 2-348] | 5 (Level 5: the growth inhibition rate is greater than 85%) | 5 (Level 5: the growth inhibition rate is greater than 85%) | 5 (Level 5: the growth inhibition rate is greater than 85%) | 5 (Level 5: the growth inhibition rate is greater than 85%) | 5 (Level 5: the growth inhibition rate is greater than 85%) | 0 (Level 0: the growth inhibition rate is less than 5%) | 5 (Level 5: the growth inhibition rate is greater than 85%) | 5 (Level 5: the growth inhibition rate is greater than 85%) | 5 (Level 5: the growth inhibition rate is greater than 85%) | 0 (Level 0: the growth inhibition rate is less than 5%) | 5 (Level 5: the growth inhibition rate is greater than 85%) | – | – | – |
